Test system: HeLa cells
Assay: Comet assay (DNA damage), HeLa
Type: cell-based, human
Set-up: Olive Tail Moment (Mean) / Tail Moment (Mean): unit not given here
Conditions: for percentage of tail DNA and tail moment: 10 μM, 1, 3, 6, 12 h; for Olive Tail Moment (Mean) / Tail Moment (Mean) / %Tail DNA (Mean): 10 µM; for Olive Tail Moment (Mean): control 5.539; for Tail Moment (Mean): control 9.081; for %Tail DNA (Mean): control 28.414, alkaline electrophoresis, Vista Green
Experimental: The DNA damage assay was performed using a comet assay kit 96-well plate (Cell Bio Labs, CA, USA) as per the manufacturer’s instructions. Briefly, the cell suspension was mixed with the low-melting agarose at 1:20 ratio and added to the pre-coated 96 well plate. The cells were then subjected to lysis for 1 h, followed by alkaline electrophoresis. The plate was then washed in 70% ethanol and Vista Green DNA dye was added. The comets were visualized in Zeiss LSM780 Confocal microscope. The images were processed using Zeiss ZEN lite software and the comet parameters were measured using Open comet software.
Adriamycin is well known to induce DNA damage. Given the critical role of CARP-1 in apoptotic signaling by Adriamycin and CFM compounds, and the fact that stress-activated protein kinases (SAPKs) p38 and JNKs are activated in apoptosis signaling by CFM-4.16 [6, 12, 13, 14, 15, 16, 17, 18], we next determined whether CFM-4.16 also provoked DNA damage. We treated MDA-MB-468 and HeLa cells with a 10 μM dose of Adriamycin or CFM-4.16 for 1, 3, 6, and 12 h, followed by assessment of damaged DNA by the comet assay as described in Section 2. The presence of comet-like tails that contain the fragmented cellular DNA is a well-known marker/indicator of apoptosis. We measured the comet parameters such as percentage tail DNA and mean tail moment. […] Of note is the fact that Adriamycin and related anthracyclines intercalate between DNA bases and trap topoisomerase II (TopoII) in the double-strand cleavage form, thus introducing double-strand breaks (DSBs) due to TopoII poisoning. It remains to be clarified whether CFM-4.16 also targets cellular DNA and/or the associated DNA repair complex protein(s) to introduce DNA strand breaks, or activates caspase-activated DNAses to breakdown cellular genomic DNA.
Figure 2 Adriamycin and CFM-4.16 induce DNA damage. Cells were treated with the noted dose of respective compound for indicated time periods. Mean values for percentage tail DNA content (A,C) and Olive tail moment (B,D) for respective cells from control and treatment periods for each compound were measured using software recommended by the manufacturer of the kit for measurement of DNA damage (Cell Bio Labs, CA, USA). The columns in each chart indicate average values for respective treatment condition; bars, SE; * p ≤ 0.05.
Table S1. Adriamycin and CFM-4.16 stimulate DNA Damage in a time-dependent manner. MDA-MB-468 and HeLa cells were with noted dose of respective compound for indicated time periods.
Mean values for % tail DNA, Tail moment, and Olive tail moment for respective cells from control and treatment periods for each compound were measured using software recommended by the manufacturer of the kit for measurement of DNA damage (Cell Bio Labs, San Diego, CA, USA). The p values for each of the parameter are indicated below the mean values in each column for the treatment time period with each compound for both the cell lines.
Adriamycin (10 µM) CFM-4.16 (10 µM)

Structure (SMILES) | percentage of tail DNA and tail moment | Olive Tail Moment (Mean) (1 h) | Tail Moment (Mean) (1 h) | %Tail DNA (Mean) (1 h) | Olive Tail Moment (Mean) (3 h) | Tail Moment (Mean) (3 h) | %Tail DNA (Mean) (3 h) | Olive Tail Moment (Mean) (6 h) | Tail Moment (Mean) (6 h) | %Tail DNA (Mean) (6 h) | Olive Tail Moment (Mean) (12 h) | Tail Moment (Mean) (12 h) | %Tail DNA (Mean) (12 h)
COc1cccc2c1C(=O)c1c(O)c3c(c(O)c1C2=O)C[C@@](O)(C(=O)CO)C[C@@H]3O[C@H]1C[C@H](N)[C@H](O)[C@H](C)O1 [Adriamycin, doxorubicin, reference compound] | significantly increased | 18.8 | 32.09 | 40.8% | 39.9 | 61.8 | 76.74% | 47.9 | 79.11 | 84.98% | 60.49 | 102.2 | 93.4%
O=C1N(Cc2ccccc2Cl)c2ccccc2C12NN=C(c1cccc(Cl)c1)S2 (centres unmarked) [CFM-4.16] | significantly increased | 10.9 | 16.526 | 27.297% | 15.4 | 26.7 | 34.45% | 32.73 | 47.54 | 53.24% | 41.02 | 76.03 | 69.61%

Reference: article PMC6406907, “A H2AX–CARP-1 Interaction Regulates Apoptosis Signaling Following DNA Damage” (Cancers, 2019)
